# According to US4016176A, “Esters of 4-hydroxy-2,9-dioxatricyclo[4.3.1.0^3,7 ] decanes and processes for their production” (Kali-Chemie Pharma GmbH, priority 1973, dated 1977):
# Like-named read-outs stand apart in the source and are kept apart here.
# Legend:
# [1] = acute toxicity (LD50) in mice; type: in vivo, mouse; conditions: mouse, in vivo, mouse
# Text: (§1) In the Table 3 which follows are listed results of tests pertaining to the effectiveness of various compounds that are disclosed herein. The results are included in the several columns under letters whose significance is as follows:
# (§2) A - lethal dose (LD50) to mice in milligrams per kilogram of body weight of the mouse when administered per os.
# (§3) B - lethal dose (LD50) to mice in milligrams per kilogram of body weight of the mouse when administered intraperitoneally.
# (§4) A. lethal dose (LD50) to mice in milligrams per kilogram body weight of the mouse when administered per os.
# (§5) B. lethal dose (LD50) to mice in milligrams per kilogram body weight of the mouse administered intraperitoneally.
# (§6) The values specified in Tables 4 and 5 hereinafter refer to milligrams per kilogram of body weight of the mouse.
# (§7) Tests performed in accordance with the procedure described by Campbell and Richter in Acta Pharmacol. et Toxicol., vol. […] This is indicated by the results that are reported in Table 5 in which the headings A and F have the same significance as hereinbefore while the values in the column heading L pertain to the dose in milligrams per kilogram of body weight that was required to produce a lowering of the rectal temperature, which are values indicative of the depressant effect of a compound upon the central nervous system.
# mouse [2] = assay: prolongation of narcosis produced by hexobarbital in mice; type: in vivo; conditions: for E - dose which prolongs narcosis produced by hexobarbital in a mouse by a factor of 4: factor of 4, Table 3; for prolongation of narcosis produced by hexobarbital (in words): comparison of epimers
# Text: (§8) In the Table 3 which follows are listed results of tests pertaining to the effectiveness of various compounds that are disclosed herein.
# mouse [3] = assay: ataxia in mice; type: in vivo; conditions: for C - ataxia: dose required to produce ataxia in a mouse / minimal effective dose: Table 3; for minimal effective dose: Mus musculus, read-out: C - ataxia: dose required to produce ataxia in a mouse, mouse
# Text: as §1
# C - ataxia: Dose in milligrams per kilogram of body weight required to produce ataxia in a mouse.
# white mice [4] = assay: ptosis test (Campbell and Richter screening); type: in vivo, mouse; conditions: for F ptosis test: mouse, Table 5
# Text: (§9) The sedative and hypnotic effectiveness of the compounds of the invention were also ascertained by screening tests with white mice described by Campbell and Richter in Acta Pharmacol. et Toxicol. 25 (1967) page 345. In Table 4 the results of various specific screening tests are listed. These tests were as follows:
# as §6, §7
# mice [5] = assay: acute toxicity (LD50) in mice; type: in vivo, mouse; conditions: mouse; for B - lethal dose (LD50) to mice, intraperitoneally: intraperitoneal; for B - lethal dose (LD50) to mice, intraperitoneally / A - lethal dose (LD50) to mice, per os: Table 3
# Text: as §1, §2, §3, §4, §5, §6, §7
# mouse [6] = assay: lowering of the rectal temperature in mice; type: in vivo; conditions: for minimal effective dose: mouse, Table 5, read-out: L dose required to produce a lowering of the rectal temperature; for dose required to produce a lowering of the rectal temperature, relative to the 4-hydroxy compound (in words): compared with Compound No. 2090
# Text: as §6, §7
# mice [7] = assay: narcosis (lateral position) in mice; type: in vivo, mouse; conditions: for ED50: ip, 0.05 h, read-out: D - narcosis (lateral position): dose (ED50) which produces narcosis for 3 minutes in 50% of the mice; for narcosis (in words): comparison of epimers
# Text: as §8
# white mice [8] = assay: climbing test (Campbell and Richter screening); type: in vivo; conditions: mouse; Table 4; read-out: J. climbing test (ED50)
# Text: as §9, §6
# white mice [9] = assay: balance bar test (Campbell and Richter screening); type: in vivo; conditions: mouse; Table 4; read-out: K. balance bar test (ED50)
# Text: as §9
# K. balance bar test (ED50).
# as §6
# [10] = ip, intraperitoneal, Table 3, read-out: B - lethal dose (LD50) to mice, intraperitoneally
# [11] = po, per os, Table 3, read-out: A - lethal dose (LD50) to mice, per os
# [12] = po, per os, Table 5, read-out: A lethal dose (LD50) to mice, per os
# [13] = mouse, intraperitoneal, narcosis for 3 minutes, Table 3
# [14] = ip, intraperitoneal, Table 4, read-out: B. lethal dose (LD50) to mice, intraperitoneally
# [15] = po, per os, Table 4, read-out: A. lethal dose (LD50) to mice, per os
smiles,measurement,setting,value
"C=C1C2OC(OC)C3C1CC(O)C3(C)O2 (stereo not drawn) [Compound No. 981, 4β-hydroxy-8-methoxy-3-methyl-10-methylene-2,9-dioxatricyclo[4.3.1.0^3,7]decane]",LD50,[1]; [10],600 mg/kg
same,LD50,[1]; [11],610 mg/kg
same,E - dose which prolongs narcosis produced by hexobarbital in a mouse by a factor of 4,mouse [2],100 milligrams per kilogram of bod
same,C - ataxia: dose required to produce ataxia in a mouse,mouse [3]; mouse,200 milligrams per kilogram of bod
"COC1OC2OC3(C)C(O)CC(C2C)C13 (stereo not drawn) [Compound No. 1246, 4β-hydroxy-3,10-dimethyl-8-methoxy-2,9-dioxatricyclo[4.3.1.0^3,7]decane]",LD50,[1]; [10],1200 mg/kg
same,LD50,[1]; [11],> 1500 mg/kg
same,E - dose which prolongs narcosis produced by hexobarbital in a mouse by a factor of 4,mouse [2],68 milligrams per kilogram of bod
same,C - ataxia: dose required to produce ataxia in a mouse,mouse [3]; mouse,800 milligrams per kilogram of bod
"COC1OC2OC3(C)C(O)CC(C2C)C13 (stereo not drawn) [Compound No. 1561, 4α-Hydroxy-8-methoxy-3,10-dimethyl-2,9-dioxatricyclo[4.3.1.0^3,7]decane]",F ptosis test,white mice [4],100 milligrams per kilogram of bod
same,LD50,[1]; [12],> 1500 mg/kg
same,"B - lethal dose (LD50) to mice, intraperitoneally",mice [5],1600 milligrams per kilogram of bod
same,"A - lethal dose (LD50) to mice, per os",mice [5],> 1500 milligrams per kilogram of bod
same,minimal effective dose,mouse [6],100 mg/kg
same,ED50,mice [7]; Mus musculus,800 mg/kg
same,E - dose which prolongs narcosis produced by hexobarbital in a mouse by a factor of 4,mouse [2],68 milligrams per kilogram of bod
same,C - ataxia: dose required to produce ataxia in a mouse,mouse [3]; mouse,200 milligrams per kilogram of bod
COC1OC2OC3(C)C(OC(=O)NC(C)C)CC(C2C)C13 (centres unmarked) [Compound No. 2065],"B - lethal dose (LD50) to mice, intraperitoneally",mice [5],118 milligrams per kilogram of bod
same,"A - lethal dose (LD50) to mice, per os",mice [5],156 milligrams per kilogram of bod
same,ED50,mice [7]; [13],46.4 mg/kg
same,narcosis (in words),mice [7]; mouse,produces a very strong narcosis
same,prolongation of narcosis produced by hexobarbital (in words),mouse [2],prolongation of narcosis produced by hexobarbital
same,E - dose which prolongs narcosis produced by hexobarbital in a mouse by a factor of 4,mouse [2],31.6 milligrams per kilogram of bod
same,ratio between effective and lethal doses (in words),"mouse [3]; 2065 versus 2057, ataxia",remains constant
same,increase in effectiveness in producing ataxia,mouse [3]; 2065 versus epimer 2057,ten-fold increase in effectiveness
same,dose required for producing ataxia,mouse [3]; mouse,12 milligrams per kilogram of body weight
same,C - ataxia: dose required to produce ataxia in a mouse,mouse [3]; mouse,12 milligrams per kilogram of bod
C=C1C2OC(OC)C3C1CC(OC(=O)NCC)C3(C)O2 (centres unmarked) [Compound No. 2067],LD50,[1]; [10],390 mg/kg
same,LD50,[1]; [11],872 mg/kg
same,toxicity of the epimers (in words),mice [5]; 2067 versus 2076,substantially the same toxicity
same,narcosis (in words),mice [7]; mouse,does not produce narcosis
same,prolongation of narcosis produced by hexobarbital (in words),mouse [2],prolongs narcosis produced by hexobarbital
same,E - dose which prolongs narcosis produced by hexobarbital in a mouse by a factor of 4,mouse [2],215 milligrams per kilogram of bod
same,minimal effective dose,mouse [3],50 mg/kg
same,doses effective in producing ataxia (in words),"mouse [3]; mouse, 2067 versus 2076",identical doses are effective in producing ataxia
"C=C1C2OC(OC)C3C1CC(O)C3(C)O2 (stereo not drawn) [Compound No. 2090, 4α-Hydroxy-8-methoxy-3-methyl-10-methylene-2,9-dioxatricyclo[4.3.1.0^3,7] decane]",F ptosis test,white mice [4],100 milligrams per kilogram of bod
same,"B - lethal dose (LD50) to mice, intraperitoneally",mice [5],300 milligrams per kilogram of bod
same,"A - lethal dose (LD50) to mice, per os",mice [5],774 milligrams per kilogram of bod
same,minimal effective dose,mouse [6],200 mg/kg
same,ED50,mice [7]; Mus musculus,< 300 mg/kg
same,C - ataxia: dose required to produce ataxia in a mouse,mouse [3]; mouse,25 milligrams per kilogram of bod
"C=C1C2OC(OC)C3C1CC(OC(C)=O)C3(C)O2 (stereo not drawn) [Compound No. 2117, 4α-Acetoxy-8-methoxy-3-methyl-10-methylene-2,9-dioxatricyclo [4.3.1.0^3,7] decane]",F ptosis test,white mice [4],100 milligrams per kilogram of bod
same,LD50,[1]; [12],774 mg/kg
same,"dose required to produce a lowering of the rectal temperature, relative to the 4-hydroxy compound (in words)",mouse [6],smaller
same,minimal effective dose,mouse [6],50 mg/kg
"C=C1C2OC(OC)C3C1CC(OC(=O)CC)C3(C)O2 (stereo not drawn) [Compound No. 2118, 4α-Propionyloxy-8-methoxy-3-methyl-10-methylene-2,9-dioxatricyclo[4.3.1.0^3,7]decane]",F ptosis test,white mice [4],100 milligrams per kilogram of bod
same,LD50,[1]; [12],1140 mg/kg
same,"dose required to produce a lowering of the rectal temperature, relative to the 4-hydroxy compound (in words)",mouse [6],smaller
same,minimal effective dose,mouse [6],100 mg/kg
"COC1OC2OC3(C)C(OC(=O)CC(C)C)CC(C2C)C13 (stereo not drawn) [Compound No. 2215, 4α-Isovaleryloxy-8-methoxy-3,10-dimethyl-2,9-dioxatricyclo[4.3.1.0^3,7]decane]",dose producing ptosis relative to the 4-hydroxy compound (in words),white mice [4]; compared with Compound No. 1561,one-fourth or one-half of the dose required of the 4-hydroxy-compound
same,F ptosis test,white mice [4],50 milligrams per kilogram of bod
same,LD50,[1]; [12],> 1470 mg/kg
same,minimal effective dose,mouse [6],200 mg/kg
"C=CCNC(=O)OC1CC2C(C)C3OC(OC)C2C1(C)O3 (stereo not drawn) [Compound No. 2274, 4α-(N-Allylcarbamyloxy)-8-methoxy-3,10-dimethyl-2,9-dioxatricyclo[4.3.1.0^3,7]decane]",ED50,white mice [8],75 mg/kg
same,LD50,[1]; [14],279 mg/kg
same,LD50,[1]; [15],339 mg/kg
same,ED50,white mice [9],62.5 mg/kg
"C=CCNC(=O)OC1CC2C(=C)C3OC(OC)C2C1(C)O3 (stereo not drawn) [Compound No. 2286, 4α-(N-Allylcarbamyloxy)-8-methoxy-3-methyl-10-methylene-2,9-dioxatricyclo[4.3.1.0^3,7]decane]",ED50,white mice [8],112 mg/kg
same,LD50,[1]; [14],444 mg/kg
same,LD50,[1]; [15],970 mg/kg
same,ED50,white mice [9],50 mg/kg
"C=C1C2OC(OC)C3C1CC(OC(=O)CC(C)C)C3(C)O2 (stereo not drawn) [Compound No. 2295, 4α-Isovaleryloxy-8-methoxy-3-methyl-10-methylene-2,9-dioxatricyclo[4.3.1.0^3,7]decane]",LD50,[1]; [12],> 1470 mg/kg
same,"dose required to produce a lowering of the rectal temperature, relative to the 4-hydroxy compound (in words)",mouse [6],smaller
same,minimal effective dose,mouse [6],100 mg/kg
"COC1OC2OC3(C)C(OC(=O)NC4CCCCC4)CC(C2C)C13 (stereo not drawn) [Compound No. 2365, 4α-(N-Cyclohexylcarbamyloxy)-8-methoxy-3,10-dimethyl-2,9-dioxatricyclo[4.3.1.0^3,7]decane]",ED50,white mice [8],150 mg/kg
same,LD50,[1]; [14],832 mg/kg
same,LD50,[1]; [15],1470 mg/kg
same,ED50,white mice [9],137 mg/kg
CCNC(=O)OC1CC2C(C)C3OC(OCC)C2C1(C)O3 (centres unmarked) [compound 2157],LD50,[1]; [10],527 mg/kg
same,LD50,[1]; [11],1470 mg/kg
same,ED50,mice [7]; [13],100 mg/kg
C=C1C2OC(OCC)C3C1CC(OC(=O)NCC)C3(C)O2 (centres unmarked) [compound 2179],LD50,[1]; [10],802 mg/kg
same,LD50,[1]; [11],944 mg/kg
same,ED50,mice [7]; [13],< 100 mg/kg
same,minimal effective dose,mouse [3],< 100 mg/kg
CCCCNC(=O)OC1CC2C(C)C3OC(OC)C2C1(C)O3 (centres unmarked) [compound 2327],ED50,white mice [8],56 mg/kg
same,LD50,[1]; [14],432 mg/kg
same,LD50,[1]; [15],690 mg/kg
same,ED50,white mice [9],18 mg/kg
COC1OC2OC3(C)C(OC(=O)NC(C)(C)C)CC(C2C)C13 (centres unmarked) [compound 2328],ED50,white mice [8],175 mg/kg
same,LD50,[1]; [14],1130 mg/kg
same,LD50,[1]; [15],1470 mg/kg
same,ED50,white mice [9],56 mg/kg
CCCNC(=O)OC1CC2C(C)C3OC(OC)C2C1(C)O3 (centres unmarked) [compound 2364],ED50,white mice [8],44 mg/kg
same,LD50,[1]; [14],244 mg/kg
same,LD50,[1]; [15],327 mg/kg
same,ED50,white mice [9],38 mg/kg
C=C1C2OC(OC)C3C1CC(OC(=O)NCCC)C3(C)O2 (centres unmarked) [compound 2388],ED50,white mice [8],75 mg/kg
same,LD50,[1]; [14],516 mg/kg
same,LD50,[1]; [15],619 mg/kg
same,ED50,white mice [9],33 mg/kg
CNC(=O)OC1CC2C(C)C3OC(OC)C2C1(C)O3 (centres unmarked) [compound 2500],ED50,white mice [8],250 mg/kg
same,LD50,[1]; [14],954 mg/kg
same,LD50,[1]; [15],1140 mg/kg
same,ED50,white mice [9],621 mg/kg
C=C1C2OC(OC)C3C1CC(OC(=O)NC)C3(C)O2 (centres unmarked) [compound 2504],LD50,[1]; [14],492 mg/kg
same,LD50,[1]; [15],528 mg/kg
same,ED50,white mice [9],200 mg/kg
C=CCNC(=O)OC1CC2C(=C)C3OC(OCC)C2C1(C)O3 (centres unmarked) [compound 2658],ED50,white mice [8],185 mg/kg
same,LD50,[1]; [14],331 mg/kg
same,LD50,[1]; [15],470 mg/kg
same,ED50,white mice [9],62 mg/kg
